# Results taken from patent US8598357B2, “Benzodioxole piperidine compounds” (Hoffmann-La Roche Inc., priority 2011, dated 2013).
# Like-named read-outs stand apart in the source and are kept apart here.
# What was measured:
# 5-HT2A receptor = 5-HT2A receptor (Homo sapiens (Human), UniProt P28223); experiment: Radioligand binding assay ([3H]-ketanserin) on membranes of HEK293 EBNA cells expressing human 5-HT2A receptor; conditions: read-out: 5HT2A Ki
# Protocol: (§1) HEK293 EBNA cells were transiently transfected with expression plasmids encoding for the human D2 or D3 or for the human 5-HT2A receptor, respectively. The cells were harvested 48 h post-transfection, washed three times with cold PBS and stored at −80° C. prior to use. The pellet was suspended in cold 50 mM Tris-HCl buffer containing 10 mM EDTA (pH 7.4) and was homogenized with a Polytron (Kinematica AG, Basel, Switzerland) for 20-30 sec at 12.000 rpm. After centrifugation at 48.000×g for 30 min at 4° C., the pellet was resuspended in cold 10 mM Tris-HCl buffer containing 0.1 mM EDTA (pH 7.4), homogenized, and centrifuged as above. This pellet was further resuspended in a smaller volume of ice cold 10 mM Tris-HCl buffer containing 0.1 mM EDTA (pH 7.4) and homogenized with a Polytron for 20-30 sec at 12.000 rpm. The protein content of this homogenate was determined with the Bio-Rad (Bradford) Protein Assay (Biorad Laboratories GmbH, München, Germany) according to the instructions of the manufacturer using gamma globulin as the standard. This homogenate was stored at −80° C. in aliquots and thawed immediately prior to use.
# (§2) Aliquots of membrane preparations were thawed at RT, resuspended in assay buffer (D2, D3: 50 mM Tris-HCl, 120 mM NaCl, 5 mM MgCl2, 1 mM EDTA, 5 mM KCl, 1.5 mM CaCl2, pH=7.4; 5-HT2A: 50 mM Tris-HCl, 10 mM MgCl2, 1 mM EGTA, pH=7.4), homogenized with a Polytron for 20-30 sec at 12.000 rpm and adjusted to a final concentration of approximately 7.5 μg protein/well (D2, D3) and 15 μg protein/well (5-HT2A), respectively.
# (§3) The nonspecific binding was determined with equally composed reaction mixtures in the presence of 10 μM unlabelled spiperone. Per well 45 μl of Microscint 40 (Perkin Elmer, Schwerzenbach, Switzerland) was added, plates for sealed, shaken for 20 min and counted for 3 min on a Topcount Microplate Scintillation Counter (Can berra Packard SA, Ziirich, Switzerland) with quenching correction.
# (§4) The CPM value for each duplicate of a concentration of competing compound was averaged (y1), then the % specific binding was calculated according to the equation (((y1−non-specific)/(total binding−non-specific))×100). Graphs were plotted with the % specific binding using XLfit, a curve fitting program that iteratively plots the data using Levenberg-Marquardt algorithm. The single site competition analysis equation used was y=A+((B−A)/(1+((x/C)D))), where y is the % specific binding, A is the minimum y, B is the maximum y, C is the IC50, x is the log 10 of the concentration of the competing compound and D is the slope of the curve (the Hill Coefficient). […] The affinity constant (K) was calculated using the Cheng-Prusoff equation Ki=(IC50/1+([L]/Kd), where [L] is the concentration of radioligand and Kd is the dissociation constant of the radioligand at the receptor as determined by the saturation isotherm.
# D2 receptor = D2 receptor (Homo sapiens (Human), UniProt P14416); experiment: Radioligand binding assay ([3H]-spiperone) on membranes of HEK293 EBNA cells expressing human D2 receptor; conditions: human receptor in HEK293 EBNA cells; 0.7 nM [3H]-spiperone
# D2 receptor, sequence (P14416 whole entry): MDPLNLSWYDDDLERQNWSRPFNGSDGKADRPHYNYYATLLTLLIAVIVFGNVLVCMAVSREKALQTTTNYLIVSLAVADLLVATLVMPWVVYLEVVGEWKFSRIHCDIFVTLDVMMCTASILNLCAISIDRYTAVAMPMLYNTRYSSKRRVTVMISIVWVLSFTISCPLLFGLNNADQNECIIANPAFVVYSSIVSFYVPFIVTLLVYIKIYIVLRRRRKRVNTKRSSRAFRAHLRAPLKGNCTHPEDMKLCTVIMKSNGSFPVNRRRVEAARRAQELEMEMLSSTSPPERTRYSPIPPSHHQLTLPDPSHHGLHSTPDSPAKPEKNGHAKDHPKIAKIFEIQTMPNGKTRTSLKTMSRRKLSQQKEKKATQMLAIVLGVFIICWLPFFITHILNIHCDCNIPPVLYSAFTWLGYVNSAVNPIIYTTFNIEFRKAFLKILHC
# Protocol: as §1, §2, §3, §4
# D3 receptor = D3 receptor (Homo sapiens (Human), UniProt P35462); experiment: Radioligand binding assay ([3H]-spiperone) on membranes of HEK293 EBNA cells expressing human D3 receptor; conditions: read-out: D3 Ki; human receptor in HEK293 EBNA cells; 0.5 nM [3H]-spiperone
# D3 receptor, sequence (P35462 whole entry): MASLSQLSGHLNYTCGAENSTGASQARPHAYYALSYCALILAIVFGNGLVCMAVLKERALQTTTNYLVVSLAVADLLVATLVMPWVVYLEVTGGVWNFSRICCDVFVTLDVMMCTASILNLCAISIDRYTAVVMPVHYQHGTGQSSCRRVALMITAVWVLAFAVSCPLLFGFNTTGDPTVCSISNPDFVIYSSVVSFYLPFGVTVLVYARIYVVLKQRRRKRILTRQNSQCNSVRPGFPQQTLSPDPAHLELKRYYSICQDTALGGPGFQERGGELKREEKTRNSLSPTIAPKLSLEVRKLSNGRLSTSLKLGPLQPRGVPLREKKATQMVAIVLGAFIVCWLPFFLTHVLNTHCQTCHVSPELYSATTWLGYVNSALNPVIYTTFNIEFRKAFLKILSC
# Protocol: as §1, §2, §3, §4
# [1] = human receptor in HEK293 EBNA cells, 1.1 nM [3H]-ketanserin
SMILES,Ki (5-HT2A receptor; [1]),Ki (D2 receptor),Ki (D3 receptor),Ki (5-HT2A receptor)
"CO[C@@H]1CC[C@@H](CC(=O)N[C@H]2CC[C@H](CCN3CCC(c4cccc5c4OCO5)CC3)CC2)C1 [Example 30, Trans-N-{4-[2-(4-Benzo[1,3]dioxol-4-yl-piperidin-1-yl)-ethyl]-cyclohexyl}-2-((1R,3R)-3-methoxy-cyclopentyl)-acetamide]",0.0274 µM,0.331 µM,0.00529 µM,–
"O=C(CC1(O)CCOCC1)N[C@H]1CC[C@H](CCN2CCC(c3cccc4c3OCO4)CC2)CC1 [Example 31, Trans-N-{4-[2-(4-Benzo[1,3]dioxol-4-yl-piperidin-1-yl)-ethyl]-cyclohexyl}-2-(4-hydroxy-tetrahydro-pyran-4-yl)-acetamide]",0.0249 µM,0.306 µM,0.00715 µM,–
"CC(C)(O)C(=O)N[C@H]1CC[C@H](CCN2CCC(c3cccc4c3OCO4)CC2)CC1 [Example 32, Trans-N-{4-[2-(4-Benzo[1,3]dioxol-4-yl-piperidin-1-yl)-ethyl]-cyclohexyl}-2-hydroxy-2-methyl-propionamide]",–,0.407 µM,0.025 µM,0.00477 µM
"CO[C@@H](C)C(=O)N[C@H]1CC[C@H](CCN2CCC(c3cccc4c3OCO4)CC2)CC1 [Example 33, Trans-(S)—N-{4-[2-(4-Benzo[1,3]dioxol-4-yl-piperidin-1-yl)-ethyl]-cyclohexyl}-2-methoxy-propionamide]",0.0291 µM,0.464 µM,0.0503 µM,–
"CO[C@H](C)C(=O)N[C@H]1CC[C@H](CCN2CCC(c3cccc4c3OCO4)CC2)CC1 [Example 34, Trans-(R)—N-{4-[2-(4-Benzo[1,3]dioxol-4-yl-piperidin-1-yl)-ethyl]-cyclohexyl}-2-methoxy-propionamide]",0.00957 µM,0.504 µM,0.0278 µM,–
"CC(C)(O)CC(=O)N[C@H]1CC[C@H](CCN2CCC(c3cccc4c3OCO4)CC2)CC1 [Example 35, Trans-N-{4-[2-(4-Benzo[1,3]dioxol-4-yl-piperidin-1-yl)-ethyl]-cyclohexyl}-3-hydroxy-3-methyl-butyramide]",0.0261 µM,0.282 µM,0.00592 µM,–
"O=C(N[C@H]1CC[C@H](CCN2CCC(c3cccc4c3OCO4)CC2)CC1)c1ccc(Cl)cc1 [Example 36, Trans-N-{4-[2-(4-Benzo[1,3]dioxol-4-yl-piperidin-1-yl)-ethyl]-cyclohexyl}-4-chloro-benzamide]",0.0218 µM,0.147 µM,0.00636 µM,–
"O=C(N[C@H]1CC[C@H](CCN2CCC(c3cccc4c3OCO4)CC2)CC1)c1ccc(F)cc1 [Example 37, Trans-N-{4-[2-(4-Benzo[1,3]dioxol-4-yl-piperidin-1-yl)-ethyl]-cyclohexyl}-4-fluoro-benzamide]",–,0.234 µM,0.00489 µM,0.0131 µM
"O=C(N[C@H]1CC[C@H](CCN2CCC(c3cccc4c3OCO4)CC2)CC1)[C@H](O)C(F)(F)F [Example 38, Trans-(S)—N-{4-[2-(4-Benzo[1,3]dioxol-4-yl-piperidin-1-yl)-ethyl]-cyclohexyl}-3,3,3-trifluoro-2-hydroxy-propionamide]",–,0.209 µM,0.00763 µM,0.0208 µM
"O=C(N[C@H]1CC[C@H](CCN2CCC(c3cccc4c3OCO4)CC2)CC1)[C@@H](O)C(F)(F)F [Example 39, Trans-(R)—N-{4-[2-(4-Benzo[1,3]dioxol-4-yl-piperidin-1-yl)-ethyl]-cyclohexyl}-3,3,3-trifluoro-2-hydroxy-propionamide]",–,0.284 µM,0.0199 µM,0.0194 µM
"O=C(C[C@@H]1CCCCO1)N[C@H]1CC[C@H](CCN2CCC(c3cccc4c3OCO4)CC2)CC1 [Example 40, Trans-N-{4-[2-(4-Benzo[1,3]dioxol-4-yl-piperidin-1-yl)-ethyl]-cyclohexyl}-2-(S)-tetrahydro-pyran-2-yl-acetamide]",–,0.422 µM,0.009 µM,0.0279 µM
"O=C(C[C@H]1CCCCO1)N[C@H]1CC[C@H](CCN2CCC(c3cccc4c3OCO4)CC2)CC1 [Example 41, Trans-N-{4-[2-(4-Benzo[1,3]dioxol-4-yl-piperidin-1-yl)-ethyl]-cyclohexyl}-2-(R)-tetrahydro-pyran-2-yl-acetamide]",–,0.491 µM,0.00765 µM,0.0126 µM
"O=C(C[C@@H]1CCCOC1)N[C@H]1CC[C@H](CCN2CCC(c3cccc4c3OCO4)CC2)CC1 [Example 42, Trans-N-{4-[2-(4-Benzo[1,3]dioxol-4-yl-piperidin-1-yl)-ethyl]-cyclohexyl}-2-(S)-tetrahydro-pyran-3-yl-acetamide]",0.0201 µM,0.322 µM,0.0117 µM,–
"O=C(C[C@H]1CCCOC1)N[C@H]1CC[C@H](CCN2CCC(c3cccc4c3OCO4)CC2)CC1 [Example 43, Trans-N-{4-[2-(4-Benzo[1,3]dioxol-4-yl-piperidin-1-yl)-ethyl]-cyclohexyl}-2-(R)-tetrahydro-pyran-3-yl-acetamide]",0.0198 µM,0.408 µM,0.0078 µM,–
"CCOCCC(=O)N[C@H]1CC[C@H](CCN2CCC(c3cccc4c3OCO4)CC2)CC1 [Example 44, Trans-N-{4-[2-(4-Benzo[1,3]dioxol-4-yl-piperidin-1-yl)-ethyl]-cyclohexyl}-3-ethoxy-propionamide]",0.055 µM,0.393 µM,0.00732 µM,–
"O=C(CC1(O)CCC1)N[C@H]1CC[C@H](CCN2CCC(c3cccc4c3OCO4)CC2)CC1 [Example 45, Trans-N-{4-[2-(4-Benzo[1,3]dioxol-4-yl-piperidin-1-yl)-ethyl]-cyclohexyl}-2-(1-hydroxy-cyclobutyl)-acetamide]",–,0.262 µM,0.00641 µM,0.0268 µM
"O=C(N[C@H]1CC[C@H](CCN2CCC(c3cccc4c3OCO4)CC2)CC1)C1CCCO1 (stereo partly drawn) [Example 46, Tetrahydro-furan-2-carboxylic acid-trans-{4-[2-(4-benzo[1,3]dioxol-4-yl-piperidin-1-yl)-ethyl]-cyclohexyl}-amide]",0.0144 µM,0.464 µM,0.0476 µM,–
"O=C(N[C@H]1CC[C@H](CCN2CCC(c3cccc4c3OCO4)CC2)CC1)C1CCOC1 (stereo partly drawn) [Example 47, Tetrahydro-furan-3-carboxylic acid-trans-{4-[2-(4-benzo[1,3]dioxol-4-yl-piperidin-1-yl)-ethyl]-cyclohexyl}-amide]",0.0241 µM,0.165 µM,0.00761 µM,–
"O=C(N[C@H]1CC[C@H](CCN2CCC(c3cccc4c3OCO4)CC2)CC1)C1CCOCC1 [Example 48, Tetrahydro-pyran-4-carboxylic acid-trans-{4-[2-(4-benzo[1,3]dioxol-4-yl-piperidin-1-yl)-ethyl]-cyclohexyl}-amide]",0.00952 µM,0.184 µM,0.0138 µM,–
"O=C(N[C@H]1CC[C@H](CCN2CCC(c3cccc4c3OCO4)CC2)CC1)C1(O)CC1 [Example 49, 1-Hydroxy-cyclopropanecarboxylic acid-trans-{4-[2-(4-benzo[1,3]dioxol-4-yl-piperidin-1-yl)-ethyl]-cyclohexyl}-amide]",–,0.245 µM,0.00609 µM,0.00817 µM
"O=C(N[C@H]1CC[C@H](CCN2CCC(c3cccc4c3OCO4)CC2)CC1)C1(C(F)(F)F)CC1 [Example 50, Trifluoromethyl-cyclopropanecarboxylic acid-trans-N-{4-[2-(4-benzo[1,3]dioxol-4-yl-piperidin-1-yl)-ethyl]-cyclohexyl}-amide]",0.019 µM,0.246 µM,0.0409 µM,–
"CCC(C)C(=O)N[C@H]1CC[C@H](CCN2CCC(c3cccc4c3OCO4)CC2)CC1 (stereo partly drawn) [Example 51, Trans-N-{4-[2-(4-Benzo[1,3]dioxol-4-yl-piperidin-1-yl)-ethyl]-cyclohexyl}-2-methyl-butyramide]",–,0.352 µM,0.0138 µM,0.025 µM
"O=C(N[C@H]1CC[C@H](CCN2CCC(c3cccc4c3OCO4)CC2)CC1)C1CCS(=O)(=O)C1 (stereo partly drawn) [Example 52, 1,1-Dioxo-tetrahydro-thiophene-3-carboxylic acid-trans-{4-[2-(4-benzo[1,3]dioxol-4-yl-piperidin-1-yl)-ethyl]-cyclohexyl}-amide]",–,0.13 µM,0.0163 µM,0.00457 µM
"O=C(CC1CCOCC1)N[C@H]1CC[C@H](CCN2CCC(c3cccc4c3OCO4)CC2)CC1 [Example 53, Trans-N-{4-[2-(4-Benzo[1,3]dioxol-4-yl-piperidin-1-yl)-ethyl]-cyclohexyl}-2-(tetrahydro-pyran-4-yl)-acetamide]",0.0296 µM,0.352 µM,0.00881 µM,–
"O=C(N[C@H]1CC[C@H](CCN2CCC(c3cccc4c3OCO4)CC2)CC1)C1CCC1 [Example 54, Cyclobutanecarboxylic acid-trans-{4-[2-(4-benzo[1,3]dioxol-4-yl-piperidin-1-yl)-ethyl]-cyclohexyl}-amide]",–,0.1 µM,0.008 µM,0.0169 µM
"CS(=O)(=O)CC(=O)N[C@H]1CC[C@H](CCN2CCC(c3cccc4c3OCO4)CC2)CC1 [Example 55, Trans-N-{4-[2-(4-Benzo[1,3]dioxol-4-yl-piperidin-1-yl)-ethyl]cyclohexyl}-2-methanesulfonyl-acetamide]",0.027 µM,0.165 µM,0.00463 µM,–
"O=C(N[C@H]1CC[C@H](CCN2CCC(c3cccc4c3OCO4)CC2)CC1)c1ccc(N2CCOCC2)cc1 [Example 56, Trans-N-{-4-[2-(4-Benzo[1,3]dioxol-4-yl-piperidin-1-yl)-ethyl]-cyclohexyl}-4-morpholin-4-yl-benzamide]",0.0185 µM,0.593 µM,0.0101 µM,–
"O=C(N[C@H]1CC[C@H](CCN2CCC(c3cccc4c3OCO4)CC2)CC1)c1ccnc2ccccc12 [Example 57, Quinoline-4-carboxylic acid-trans-N-{4-[2-(4-benzo[1,3]dioxol-4-yl-piperidin-1-yl)-ethyl]-cyclohexyl}-amide]",0.0231 µM,0.37 µM,0.00616 µM,–
